Results published in patent publication EP1017810B1, “AGONIST AND ANTAGONIST PEPTIDES OF CARCINOEMBRYONIC ANTIGEN (CEA)” (THE GOVERNMENT OF THE UNITED STATES OF AMERICA, as …, priority 1997, dated 2004).
Where no end group is shown, it is not given here.

test system: CEA CTL T-Vac8; experiment: initial screening cytotoxicity assay, 111In release from peptide-incubated C1R-A2 cells with T-Vac8 CTL; format: cell-based, human; conditions: peptide at 1, 0.1 and 0.01 µg/ml, E:T=1.45:1, 4 hours

Row | Molecule | activation of T-Vac8 cytotoxicity (lysis of peptide-incubated targets)
1 | YLSGINLNL [CAP1-5I] | provided stimulation, albeit at reduced levels compared to CAP1 itself
2 | YLSGACLNL [CAP1-6C] | equal to or better than CAP1
3 | YLSGFNLNL [CAP1-5F] | provided stimulation, albeit at reduced levels compared to CAP1 itself
4 | CC[C@H](C)[C@H](NC(=O)[C@H](CC(N)=O)NC(=O)[C@H](C)NC(=O)CNC(=O)[C@H](CO)NC(=O)[C@H](CC(C)C)NC(=O)[C@@H](N)Cc1ccc(O)cc1)C(=O)N[C@@H](CC(N)=O)C(=O)N[C@@H](CC(C)C)C(=O)O [CAP1-7I] | appeared to be active
5 | CC(C)C[C@H](NC(=O)[C@H](CC(N)=O)NC(=O)[C@H](CC(C)C)NC(=O)[C@H](CC(=O)O)NC(=O)[C@H](C)NC(=O)CNC(=O)[C@H](CO)NC(=O)[C@H](CC(C)C)NC(=O)[C@@H](N)Cc1ccc(O)cc1)C(=O)O [CAP1-6D] | equal to or better than CAP1
6 | YLSGSNLNL [CAP1-5S] | provided stimulation, albeit at reduced levels compared to CAP1 itself
